Reference: US12161630B2, “Methods to control infection using new generation small molecule growth inhibitors” (priority 2017, dated 2024)
In brackets after ≈: the same amount, converted by molar mass.

Experiments:
[1] = test system: S. typhimurium WT; assay: High-throughput primary screen for S. typhimurium growth inhibitors at 200 μM; assay type: cell-based, Salmonella enterica subsp. enterica serovar Typhimurium LT2; conditions: adjusted M9 minimal broth, 12 hrs, 37° C., bactericidal = 100% growth inhibition and no growth on XLT4 agar, bacteriostatic = 100% growth inhibition but growth on XLT4 agar
Experimental: (§1) Identification of S. typhimurium growth inhibitors: The 4182 small molecules (SMs) were screened at 200 μM against S. typhimurium WT using HTS assay in a 96-well plate format. An overnight Salmonella suspension was normalized at 0.05 OD600 (approximately 3.5×10^7 CFU/ml) with an adjusted M9 minimal broth medium (12.7 mM Na2HPO4 7H2O; 22 mM KH2PO4; 18.7 mM NH4Cl; 2 mM MgSO4; 0.1 mM CaCl2; 0.4% glucose; 0.05% casamino acids). 100 μL of the suspension plus 2 μl of SMs (200 μM) were transferred into each well of a sterile, non-treated, flat bottom 96-well plate. Bacteria alone (negative control, NC), 2% DMSO plus bacteria (DMSO control), 20 μg/ml chloramphenicol or 50 μg/ml kanamycin plus bacteria (positive controls, PC), and M9 medium only were used as control. Plates were incubated in a Sunrise™ Tecan kinetic microplate reader for 12 hrs at 37° C. and the optical density (OD) was measure at 600 nm as described above. Percentage of inhibition=[…]. SMs were identified as growth inhibitors if their inhibition value after incubation was above 20% (value representing the inhibition level monitored with the DMSO controls). Cultures from wells showing no turbidimetric increase were transferred onto a XLT4 agar plate. Plates were incubated at 37° C. for 36 hrs.

[2] = test system: Salmonella Enteritidis; assay: MIC and MBC dose-response, serotype Enteritidis; assay type: cell-based, Salmonella enterica; conditions: MIC identical to MBC
Experimental: as §1, with “An” for “Identification of S. typhimurium growth inhibitors: The 4182 small molecules (SMs) were screened at 200 μM against S. typhimurium WT using HTS assay in a 96-well plate format. An”, “SMs were identified as growth inhibitors if their inhibition value after incubation was above 20% (value representing the inhibition level monitored with the DMSO controls).” left out
(§2) Screens were performed as described in the primary screen. The lowest SM concentration with a static effect was considered as the minimal inhibitory concentration (MIC) and the lowest SM concentration with a cidal effect was considered as the minimal bactericidal concentration (MBC).

[3] = test system: Salmonella Saint-Paul; assay: MIC and MBC dose-response, serotype Saint-Paul; assay type: cell-based; conditions: MIC identical to MBC
Experimental: as §1, with “An” for “Identification of S. typhimurium growth inhibitors: The 4182 small molecules (SMs) were screened at 200 μM against S. typhimurium WT using HTS assay in a 96-well plate format. An”, “SMs were identified as growth inhibitors if their inhibition value after incubation was above 20% (value representing the inhibition level monitored with the DMSO controls).” left out
as §2

[4] = test system: S. typhimurium cell membrane; assay: Crystal violet uptake after treatment with lethal dose of SMs; assay type: cell-based; conditions: 1 hr; for reduction of crystal violet uptake: compared to 1% DMSO control
Experimental: To further support the observation obtained with confocal microscopy, the same samples were analyzed using scanning electron microscopy (SEM; FIG. 13P-S). […] Smaller outer membrane vesicles of approximately 20 to 70 nm were also observed covering the surface of the bacteria. […] These conclusions were further supported by measuring the crystal violet uptake and leakage of materials assessed at 260 nm after 1 hr of treatment with a lethal dose of SMs.

[5] = test system: Salmonella Braenderup; assay: MIC and MBC dose-response, serotype Braenderup; assay type: cell-based, Salmonella enterica; conditions: MIC identical to MBC
[6] = test system: internalized Salmonella in Caco-2, HD11 and THP-1 cells; assay: S. typhimurium clearance in infected cell lines, summary over the three cell lines; assay type: cell-based; conditions: over the three cell lines (Caco-2, HD11, THP-1)
Experimental: (§3) Effect of the four SMs on S. typhimurium intracellular survival in cells lines: The ability of four SMs to clear S. typhimurium WT […] was evaluated using three cell lines (Caco-2 cells, HD11, and THP-1 cells). The Salmonella intracellular survival as assessed as described (13). A multiplicity of infection “MOI” of 10 was used. Infected cells were treated with 1 μl of SMs (final concentration ranged between 100 μM and 6.25 μM) at 37° C. for 24 hrs in humidified, 5% CO2 incubator. Following incubation, cells were washed once with 150 μl of 1×PBS, lysed with 0.1% Triton-100X, serial ten-fold diluted in 1×PBS, and plated on agar plate. Plates were incubated at 37° C. for 24 hrs to determine the intracellular survival. Cells not infected and not treated, and cells infected and treated with 2% DMSO were used as controls.

[7] = test system: Salmonella Muenchen; assay: MIC and MBC dose-response, serotype Muenchen; assay type: cell-based, Salmonella enterica; conditions: MIC identical to MBC
Experimental: as §1, with “An” for “Identification of S. typhimurium growth inhibitors: The 4182 small molecules (SMs) were screened at 200 μM against S. typhimurium WT using HTS assay in a 96-well plate format. An”, “SMs were identified as growth inhibitors if their inhibition value after incubation was above 20% (value representing the inhibition level monitored with the DMSO controls).” left out
as §2

[8] = test system: S. typhimurium WT; assay: MIC and MBC dose-response, serotype Typhimurium; assay type: cell-based, Salmonella enterica subsp. enterica serovar Typhimurium LT2; conditions: for MIC/MBC: Salmonella serotype Typhimurium, MIC identical to MBC
Experimental: as §1, with “An” for “Identification of S. typhimurium growth inhibitors: The 4182 small molecules (SMs) were screened at 200 μM against S. typhimurium WT using HTS assay in a 96-well plate format. An”, “SMs were identified as growth inhibitors if their inhibition value after incubation was above 20% (value representing the inhibition level monitored with the DMSO controls).” left out
as §2

[9] = test system: S. typhimurium WT internalized in Caco-2 cells; assay: S. typhimurium intracellular survival in infected Caco-2 cells; assay type: cell-based; conditions: S. Typhimurium-infected Caco-2 cells, 24 hrs treatment
Experimental: as §3

[10] = test system: Salmonella Newport; assay: MIC and MBC dose-response, serotype Newport; assay type: cell-based, Salmonella enterica; conditions: MIC identical to MBC
Experimental: as §1, with “An” for “Identification of S. typhimurium growth inhibitors: The 4182 small molecules (SMs) were screened at 200 μM against S. typhimurium WT using HTS assay in a 96-well plate format. An”, “SMs were identified as growth inhibitors if their inhibition value after incubation was above 20% (value representing the inhibition level monitored with the DMSO controls).” left out
as §2

[11] = test system: Salmonella Heidelberg; assay: MIC and MBC dose-response, serotype Heidelberg; assay type: cell-based, Salmonella enterica; conditions: MIC identical to MBC
Experimental: as §1, with “An” for “Identification of S. typhimurium growth inhibitors: The 4182 small molecules (SMs) were screened at 200 μM against S. typhimurium WT using HTS assay in a 96-well plate format. An”, “SMs were identified as growth inhibitors if their inhibition value after incubation was above 20% (value representing the inhibition level monitored with the DMSO controls).” left out
as §2

[12] = test system: chicken red blood cells; assay: Hemolytic activity in chicken RBCs; assay type: cell-based; conditions: 200 μM, one-hour treatment
Experimental: Briefly, 200 μl of 10% sheep red blood cells (RBCs; LAMPIRE Biological Laboratories, Pipersville, PA) suspension was incubated with 1 μl of SMs (200 μM) for one hour at 37° C. in a sterile, non-treated, flat bottom plate 96-well. After incubation, the plate was centrifuged at 4000 rpm for 5 min at 4° C., then placed on ice for five min. 100 μL of the supernatant was transferred into a new sterile, treated, flat bottom 96-well plate, and the OD was measured at 540 nm. For this experiment, 2% DMSO (negative control) and 0.1% Triton-100X (positive control) were used. % Hemolysis=(OD540 SM−OD540 DMSO)/(OD540 1× triton−OD540 PBS)×100. Similar experiment was performed with chicken RBCs (OARDC, Ohio).

Compound: CCCCCCCCCCCCCCCC[n+]1ccn(CC#N)c1.[Cl-] [SM3, 1-(cyanomethyl)-3-hexadecyl-1H-imidazol-3-ium chloride]
- Effect on S. Typhimurium at 200 μM [1]: Bactericidal
- MIC/MBC [2]: 25 µM
- MIC/MBC [3]: 50 µM
- reduction of crystal violet uptake [4]: 4.46 fold
- MIC/MBC [5]: 25 µM
- concentration clearing internalized Salmonella [6]: 50 µM
- MIC/MBC [7]: 50 µM
- MIC/MBC [8]: 25 µM
- MBC (μm), Caco-2 cells [9]: 50 µM
- MIC/MBC [10]: 50 µM
- MIC/MBC [11]: 50 µM

Compound: CC1CCC(C(C)C)C(OC(=O)Cn2c[n+](CC(=O)OC3CC(C)CCC3C(C)C)c3ccccc32)C1.[Cl-] (stereo not drawn) [SM1, 1,3-bis{2-[(2-isopropyl-5-methylcyclohexyl)oxy]-2-oxoethyl}-1H-3,1-benzimidazol-3-ium chloride]
- Effect on S. Typhimurium at 200 μM [1]: Bactericidal
- MIC/MBC [2]: 100 µM
- MIC/MBC [3]: 100 µM
- reduction of crystal violet uptake [4]: 1.88 fold
- MIC/MBC [5]: 100 µM
- MIC/MBC [7]: 100 µM
- MIC/MBC [8]: 50 µM
- hemolytic activity in chicken RBCs [12]: > 50%
- MBC (μm), Caco-2 cells [9]: 25 µM
- MIC/MBC [10]: 100 µM
- MIC/MBC [11]: 100 µM

Compound: CCCCCCCCCCCCCCCCn1c[n+](C)c2ccccc21.[Br-] [SM4, 1-hexadecyl-3-methyl-1H-3,1-benzimidazol-3-ium bromide]
- Effect on S. Typhimurium at 200 μM [1]: Bactericidal
- MIC/MBC [2]: 10 µM
- MIC/MBC [3]: 10 µM
- reduction of crystal violet uptake [4]: 2.01 fold
- MIC/MBC [5]: 10 µM
- concentration clearing internalized Salmonella [6]: 25 µM
- MIC/MBC [7]: 25 µM
- MIC/MBC [8]: 10 µM
- MBC (μm), Caco-2 cells [9]: 25 µM
- MIC/MBC [10]: 25 µM
- MIC/MBC [11]: 25 µM

Compound: CCOc1cc(/C=N/N=C(N)N)ccc1OCc1ccc(Cl)cc1 [SM5, N″-{4-[(4-chlorobenzyl)oxy]-3-ethoxybenzylidene}carbonohydrazonic diamide]
- Effect on S. Typhimurium at 200 μM [1]: Bactericidal
- MIC/MBC [2]: 50 µM (≈ 17.3 µg/mL)
- MIC/MBC [3]: 50 µM (≈ 17.3 µg/mL)
- increase in permeability (crystal violet uptake) ([4]; compared to 1% DMSO-treated cells): 2.32 fold
- MIC/MBC [5]: 50 µM (≈ 17.3 µg/mL)
- MIC/MBC [7]: 50 µM (≈ 17.3 µg/mL)
- MBC ([8]; Salmonella enterica, TYPHIMURIUM, read-out: MBCAlone of SM): 25 µM (≈ 8.67 µg/mL)
- MIC/MBC [8]: 25 µM (≈ 8.67 µg/mL)
- hemolytic activity in chicken RBCs [12]: lower than 1%
- MBC (μm), Caco-2 cells [9]: 12.5 µM (≈ 4.34 µg/mL)
- MIC/MBC [10]: 50 µM (≈ 17.3 µg/mL)
- MIC/MBC [11]: 50 µM (≈ 17.3 µg/mL)
